Series [1] has as its system outflow pathway cells of perfused porcine eyes. Put plainly: Morphological studies of perfused eyes (transmission electron microscopy of outflow pathway). The following applies: porcine eyes perfused with peptide, 4 pairs, versus sham controls. As for the experimental part: After completion of RGD perfusion experiments, 4 pairs of the experimental and the control eyes were fixed for morphological examination. The fixation was performed by perfusing overnight at constant pressure of 15 mmHg with perfusion buffer containing 2.5% gluteraldehyde and 2.0% formaldehyde. Small cross-section wedges of the outflow pathway area of fixed eyes were prepared for transmission electron microscopy as described previously (Epstein et al, Invest. Ophthalmol Vis. Sci. 40:74-8116 (1999)). The specimens were fixed in 1% osmium tetraoxide in 0.1 M sodium cacodylate buffer and stained with 1% uranyl acetate for 1 hr in dark. Further, the tissues were dehydrated, infiltrated and embedded on Spurr embedding medium (Ted Pella, Inc., Redding, Calif.). Ultrathin sections (70 nm) were obtained by microtomy and stained with potassium permanganate and Sato's lead sequentially before examined with a transmission electron microscope (1200 EX; JEOL, Peabody, Mass.).

Series [2] relates to New Zealand White rabbits. Put plainly: RGD-peptide injection in the anterior chamber of rabbit eye. Format: in vivo. The following applies: 500 μg in PBS injected into the anterior chamber of one eye, live rabbits n=3. As for the experimental part:
New Zealand White rabbits of approximately five pounds were used for this experiment. Baseline Intraocular Pressure (IOP) data was obtained using a MENTOR tonopen prior to anaesthesia. The rabbits were anaesthetized with IM KETAMINE and topical proparacaine. The GRGDTP peptide (500 μg) was dissolved in phosphate buffered saline (PBS) and injected into the anterior chamber of only one eye. Further intraocular pressure mesurements were performed with a tonopen and data recorded in a time dependent manner, as shown in FIG. 8.
The results are expressed as percent change in IOP as compared to basal values obtained before injection of the RGD peptide. The basal value was taken as IOP (0%) in both eyes and the contralateral eye was used as control.

The subject of series [3] is Human Schlemm's canal (SC) cell monolayers. Description: SC cell monolayer permeability barrier function (HRP diffusion on Transwells). Format: cell-based. Particulars: 200 μM peptide, 1 hr, complete medium, n=7; mean ± S.E. As for the experimental part:
(§1) Human cadaver eye tissues were obtained from the National Disease Research Interchange (NDRI; Philadelphia, Pa.), and the SC cells were isolated following the techniques previously described (Stammer et al, Invest. Ophthalmol. Vis. Sci. 39:1804 (1998)). The cells were grown in Dulbecco's modified Eagle's medium with 10% fetal bovine serum, 2 mM L-glutamine, 100 U/ml penicillin G and 100 μg/ml streptomycine sulfate (all from GibcoBRL, Gaithersburg, Md.). The primary cultures of SC cells were used between the passages of three to six, throughout the experiments.
To correlate the specific effects of the RGD peptide compared to a control RGE peptide, the standard device was used to measure the monolayer permeability barrier function on Transwells cell culture chambers (fibronectin-coated polycarbonate filters, […] pore size, Costar Corp.) as described by Lampugnani et al (J. Cell Biol. 112: 479-490 (1991)). The diffusion of horseradish peroxidase (HRP) through SC cell monolayer was determined with and without RGD hexapeptide GRGDTP (Sigma, St. Louis, Mo.) or known control RGE hexapeptide GRGESP (GibcoBRL, Gaithersberg, Md.). […] Results were expressed as percent change in enzyme activity as compared to untreated controls. Values were obtained from three independent experiments and expressed as means±S.E. A paired t-test analysis was also performed with respect to untreated controls.

For series [4] the test system is unchanged. Put plainly: SC cells monolayer integrity assay in vitro (phase contrast, F-actin and focal adhesion staining). Format: cell-based. Particulars: complete medium, 37 C. As for the experimental part:
as §1
To evaluate the effect of RGD peptide on monolayer integrity, the SC cells were seeded on fibronectin-coated coverslips and grown for 10 days in complete medium. Before the experiment, the gaps in the confluent cells layer on coverslips were examined thoroughly. Further, the culture media was replaced with RGD peptide or control RGE peptide (200 μM)-containing complete medium and incubated at 37° C. in CO2 incubator. The changes in morphology (cell retraction, cell-cell attachments) were followed for 3 hrs. The induced morphological changes were monitored by phase contrast microscopy (Zeiss IM 35). For clear illustration of the specific and non-toxic effects of RGD peptide, the changes in SC cells monolayer integrity and reversibility were followed after treatment at higher concentration (1.0 mM) as compared to control RGE peptide. The coverslips were fixed with 3.7% formaldehyde and stained for F-actin and focal adhesions as described earlier (Lampugnani et al, J. Cell Biol. 112: 479-490 (1991)). The RGD-containing medium was removed with complete culture medium after three times washing and incubation was continued. Further, the reversibility of the gaps formation was followed.

Ends that are not written are not given here.

As for GRGDTP [GRGDTP], the “cellular toxicity in outflow pathway of perfused eyes” value was “did not show signs of cellular toxicity” in series [1] and “no sign of cellular toxicity” in series [1] (listed as RGD). In addition, in series [2], the “evidence of anterior chamber inflammation and wound leakage” value is on record as “no clinically significant changes”.

In the case of GRGESP, the “increase in SC cells monolayer permeability (HRP diffusion) as compared to untreated controls” value in series [3] is recorded as 12%±3. Moreover, the “morphological effect on SC cell monolayer integrity” value in series [4] (200 μM peptide, up to 3 hrs) is on record as “compact cellular morphology”; in series [4] (1.0 mM peptide, 3 hrs), “no such effect was noted”; in series [4] (1.0 mM peptide, 3 hrs, listed as RGE peptide) it was “no detectable effects”.

Source of the values: patent US20010053766A1, “Method of treating disorders of the eye” (priority 2000, published 2001).
